# According to patent US6525001B1, “Substituted pyrimidine and pyridine herbicides” (Mid-American Commercialization Corporation, priority 1997, dated 2003):
# Experiments:
# Assay type in all cases: in vivo
# Parameters in all cases: key: 0 is no effect; 10 is complete control
# [1] = test system: duck salad (Heteranthera limosa); assay: Test B flood test
# Method in brief: (§1)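 Each value is a visual injury score relative to controls, with 10 meaning complete control and 0 no effect. Evaluation took place twelve to sixteen days after the 2-leaf-stage plants were treated and kept in the greenhouse.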
# rice (Oryza sativa) = assay: Test B flood test
# Method in brief: as §1
# [2] = test system: smallflower flatsedge (Cyperus difformis); assay: Test B flood test
# Method in brief: as §1
# [3] = test system: bamyardgrass (Echinochloa crus-galli); assay: Test B flood test
# Method in brief: as §1
# [4] = test system: pigweed (Amaranthus retroflexus); assay: Test B pre-/postemergence
# Method in brief: (§2)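 Response scores run from 0, meaning no effect, to 10, meaning complete control, assigned by eye relative to controls twelve to sixteen days after spraying. Treatment was both preemergence on planted seed and postemergence on plants at the 1- to 4-leaf stage.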
# corn (Zea mays) = assay: Test B pre-/postemergence; settings: for Corn plant response rating: Preemergence
# Method in brief: as §2
# soybean (Glycine max) = assay: Test B pre-/postemergence
# Method in brief: as §2
# wild oat (Avena fatua) = assay: Test B pre-/postemergence
# Method in brief: as §2
# [5] = test system: blackgrass (Alopecurus myosuroides); assay: Test B pre-/postemergence; settings: for Blackgrass plant response rating: Preemergence
# Method in brief: as §2
# [6] = test system: crabgrass (Digitaria sanguinalis); assay: Test B pre-/postemergence; settings: for Crabgrass plant response rating: Preemergence
# Method in brief: as §2
# [7] = test system: purple nutsedge (Cyperus rotundus); assay: Test B pre-/postemergence
# Method in brief: as §2
# [8] = test system: cocklebur (Xanthium strumarium); assay: Test B pre-/postemergence; settings: for Cocklebur plant response rating: Preemergence
# Method in brief: as §2
# [9] = test system: momingglory (Ipomoea hederacea); assay: Test B pre-/postemergence
# Method in brief: as §2
# [10] = test system: velvetleaf (Abutilon theophrasti); assay: Test B pre-/postemergence
# Method in brief: as §2
# [11] = test system: giant foxtail (Setaria faberii); assay: Test B pre-/postemergence
# Method in brief: as §2
# rape (Brassica napus) = assay: Test B pre-/postemergence
# Method in brief: as §2
# [12] = test system: wheat (Triticum aestivum); assay: Test B pre-/postemergence
# Method in brief: as §2
# [13] = test system: bedstraw (Galium aparine); assay: Test B pre-/postemergence; settings: for Bedstraw plant response rating: Preemergence
# Method in brief: as §2
# [14] = test system: sugar beet (Beta vulgaris); assay: Test B pre-/postemergence
# Method in brief: as §2
# [15] = test system: broadleaf signalgrass (Brachiaria decumbens); assay: Test B pre-/postemergence; settings: for B. signalgrass plant response rating: Preemergence
# Method in brief: as §2
# [16] = Rate 62 g/ha, Postemergence (flood test)
# [17] = Rate 125 g/ha, Postemergence, flood test
# [18] = Rate 250 g/ha, Postemergence (flood test species)
# [19] = Rate 125 g/ha, Postemergence section (flood test species)
# [20] = Rate 250 g/ha, Postemergence (so in the source)
smiles,measurement,setting,value
Cc1cnc(-c2ccc(Cl)cc2F)nc1Cc1cccc(C#N)c1 [Compound 35],"Plant response rating, Ducksalad",[1]; [16],0
same,"Plant response rating, Ducksalad",[1]; [17],0
same,"Plant response rating, Ducksalad",[1]; [18],1
same,"Plant response rating, Rice",rice (Oryza sativa); [16],0
same,Rice plant response rating,rice (Oryza sativa); [19],1
same,"Plant response rating, Rice",rice (Oryza sativa); [18],1
same,"Plant response rating, S. Flatsedge",[2]; [16],1
same,S. Flatsedge plant response rating,[2]; [19],2
same,"Plant response rating, S. Flatsedge",[2]; [18],2
same,"Plant response rating, Barnyardgrass",[3]; [16],0
same,"Plant response rating, Barnyardgrass",[3]; [17],2
same,"Plant response rating, Barnyardgrass",[3]; [18],2
same,"Plant response rating, Redroot pigweed","[4]; Rate 62 g/ha, Postemergence",3
same,Redroot pigweed plant response rating,"[4]; Rate 62 g/ha, Preemergence",0
same,Redroot pigweed plant response rating,"[4]; Rate 125 g/ha, Postemergence",3
same,Redroot pigweed plant response rating,"[4]; Rate 125 g/ha, Preemergence",0
same,"Plant response rating, Redroot pigweed","[4]; Rate 250 g/ha, Postemergence",5
same,"Plant response rating, Redroot pigweed",[4]; [20],5
same,"Plant response rating, Corn","corn (Zea mays); Rate 62 g/ha, Postemergence",1
same,Corn plant response rating,corn (Zea mays); Rate 62 g/ha,0
same,"Plant response rating, Corn","corn (Zea mays); Rate 125 g/ha, Postemergence",1
same,Corn plant response rating,corn (Zea mays); Rate 125 g/ha,0
same,"Plant response rating, Corn","corn (Zea mays); Rate 250 g/ha, Postemergence",1
same,"Plant response rating, Corn",corn (Zea mays); [20],0
same,"Plant response rating, Soybean","soybean (Glycine max); Rate 62 g/ha, Postemergence",1
same,Soybean plant response rating,"soybean (Glycine max); Rate 62 g/ha, Preemergence",0
same,Soybean plant response rating,"soybean (Glycine max); Rate 125 g/ha, Postemergence",2
same,"Plant response rating, Soybean","soybean (Glycine max); Rate 125 g/ha, Preemergence",0
same,"Plant response rating, Soybean","soybean (Glycine max); Rate 250 g/ha, Postemergence",2
same,"Plant response rating, Soybean",soybean (Glycine max); [20],0
same,Wild oats plant response rating,"wild oat (Avena fatua); Rate 62 g/ha, Postemergence",1
same,Wild oats plant response rating,"wild oat (Avena fatua); Rate 62 g/ha, Preemergence",0
same,Wild oats plant response rating,"wild oat (Avena fatua); Rate 125 g/ha, Postemergence",1
same,"Plant response rating, Wild oats","wild oat (Avena fatua); Rate 125 g/ha, Preemergence",0
same,"Plant response rating, Wild oats","wild oat (Avena fatua); Rate 250 g/ha, Postemergence",2
same,"Plant response rating, Wild oats",wild oat (Avena fatua); [20],1
same,"Plant response rating, Blackgrass","[5]; Rate 62 g/ha, Postemergence",1
same,Blackgrass plant response rating,[5]; Rate 62 g/ha,0
same,"Plant response rating, Blackgrass","[5]; Rate 125 g/ha, Postemergence",1
same,Blackgrass plant response rating,[5]; Rate 125 g/ha,0
same,"Plant response rating, Blackgrass","[5]; Rate 250 g/ha, Postemergence",1
same,"Plant response rating, Blackgrass",[5]; [20],0
same,"Plant response rating, Crabgrass","[6]; Rate 62 g/ha, Postemergence",2
same,Crabgrass plant response rating,[6]; Rate 62 g/ha,0
same,"Plant response rating, Crabgrass","[6]; Rate 125 g/ha, Postemergence",2
same,Crabgrass plant response rating,[6]; Rate 125 g/ha,1
same,"Plant response rating, Crabgrass","[6]; Rate 250 g/ha, Postemergence",2
same,"Plant response rating, Crabgrass",[6]; [20],1
same,"Plant response rating, Nutsedge","[7]; Rate 62 g/ha, Postemergence",0
same,Nutsedge plant response rating,"[7]; Rate 62 g/ha, Preemergence",0
same,Nutsedge plant response rating,"[7]; Rate 125 g/ha, Postemergence",0
same,Nutsedge plant response rating,"[7]; Rate 125 g/ha, Preemergence",0
same,"Plant response rating, Nutsedge","[7]; Rate 250 g/ha, Postemergence",0
same,"Plant response rating, Nutsedge",[7]; [20],0
same,"Plant response rating, Cocklebur","[8]; Rate 62 g/ha, Postemergence",2
same,Cocklebur plant response rating,[8]; Rate 62 g/ha,0
same,"Plant response rating, Cocklebur","[8]; Rate 125 g/ha, Postemergence",2
same,Cocklebur plant response rating,[8]; Rate 125 g/ha,0
same,"Plant response rating, Cocklebur","[8]; Rate 250 g/ha, Postemergence",2
same,"Plant response rating, Cocklebur",[8]; [20],0
same,"Plant response rating, Morningglory","[9]; Rate 62 g/ha, Postemergence",1
same,Morningglory plant response rating,"[9]; Rate 62 g/ha, Preemergence",0
same,Morningglory plant response rating,"[9]; Rate 125 g/ha, Postemergence",1
same,Morningglory plant response rating,"[9]; Rate 125 g/ha, Preemergence",0
same,"Plant response rating, Morningglory","[9]; Rate 250 g/ha, Postemergence",1
same,"Plant response rating, Morningglory",[9]; [20],0
same,"Plant response rating, Velvetleaf","[10]; Rate 62 g/ha, Postemergence",1
same,Velvetleaf plant response rating,"[10]; Rate 62 g/ha, Preemergence",0
same,Velvetleaf plant response rating,"[10]; Rate 125 g/ha, Postemergence",1
same,"Plant response rating, Velvetleaf","[10]; Rate 125 g/ha, Preemergence",0
same,"Plant response rating, Velvetleaf","[10]; Rate 250 g/ha, Postemergence",1
same,"Plant response rating, Velvetleaf",[10]; [20],1
same,"Plant response rating, Giant foxtail","[11]; Rate 62 g/ha, Postemergence",1
same,Giant foxtail plant response rating,"[11]; Rate 62 g/ha, Preemergence",0
same,Giant foxtail plant response rating,"[11]; Rate 125 g/ha, Postemergence",1
same,Giant foxtail plant response rating,"[11]; Rate 125 g/ha, Preemergence",0
same,"Plant response rating, Giant foxtail","[11]; Rate 250 g/ha, Postemergence",1
same,"Plant response rating, Giant foxtail",[11]; [20],1
same,"Plant response rating, Rape","rape (Brassica napus); Rate 62 g/ha, Postemergence",6
same,Rape plant response rating,"rape (Brassica napus); Rate 62 g/ha, Preemergence",0
same,Rape plant response rating,"rape (Brassica napus); Rate 125 g/ha, Postemergence",6
same,Rape plant response rating,"rape (Brassica napus); Rate 125 g/ha, Preemergence",0
same,"Plant response rating, Rape","rape (Brassica napus); Rate 250 g/ha, Postemergence",9
same,"Plant response rating, Rape",rape (Brassica napus); [20],0
same,Wheat plant response rating,"[12]; Rate 62 g/ha, Postemergence",0
same,Wheat plant response rating,"[12]; Rate 62 g/ha, Preemergence",0
same,Wheat plant response rating,"[12]; Rate 125 g/ha, Postemergence",0
same,"Plant response rating, Wheat","[12]; Rate 125 g/ha, Preemergence",0
same,"Plant response rating, Wheat","[12]; Rate 250 g/ha, Postemergence",1
same,"Plant response rating, Wheat",[12]; [20],0
same,"Plant response rating, Bedstraw","[13]; Rate 62 g/ha, Postemergence",6
same,Bedstraw plant response rating,[13]; Rate 62 g/ha,0
same,"Plant response rating, Bedstraw","[13]; Rate 125 g/ha, Postemergence",6
same,Bedstraw plant response rating,[13]; Rate 125 g/ha,0
same,"Plant response rating, Bedstraw","[13]; Rate 250 g/ha, Postemergence",8
same,"Plant response rating, Bedstraw",[13]; [20],1
same,"Plant response rating, Sugarbeets","[14]; Rate 62 g/ha, Postemergence",9
same,Sugarbeets plant response rating,"[14]; Rate 62 g/ha, Preemergence",0
same,Sugarbeets plant response rating,"[14]; Rate 125 g/ha, Postemergence",10
same,"Plant response rating, Sugarbeets","[14]; Rate 125 g/ha, Preemergence",0
same,"Plant response rating, Sugarbeets","[14]; Rate 250 g/ha, Postemergence",10
same,"Plant response rating, Sugarbeets",[14]; [20],1
same,"Plant response rating, B. signalgrass","[15]; Rate 62 g/ha, Postemergence",1
same,B. signalgrass plant response rating,[15]; Rate 62 g/ha,0
same,"Plant response rating, B. signalgrass","[15]; Rate 125 g/ha, Postemergence",1
same,B. signalgrass plant response rating,[15]; Rate 125 g/ha,0
same,"Plant response rating, B. signalgrass","[15]; Rate 250 g/ha, Postemergence",1
same,"Plant response rating, B. signalgrass","[15]; Rate 250 g/ha, Postemergence as printed in head r139 (second section for compounds 26-50)",0
